Eleven compounds from patent US20240100170A1, “CYCLIC-AMP RESPONSE ELEMENT BINDING PROTEIN (CBP) AND/OR ADENOVIRAL E1A BINDING PROTEIN OF 300 KDA (P300) DEGRADATION COMPOUNDS AND METHODS OF USE” (CULLGEN (SHANGHAI), INC., priority 2020, published 2024) can be followed below.

Read-outs that look alike come from different tables or passages of the source. Bounds are passed on as bounds.

Experiment [1] deals with LNCaP prostate cancer cell. As to the kind of experiment: LNCaP cell viability (CellTiter-Glo). To be noted: Homo sapiens, 72 h, LNCaP cell viability, 3 days, CellTiter-Glo. Format: cell-based. The method, then: LNCaP cells seeded in 96-well plates were treated with 10 μM GNE-781 or selected bivalent compounds, i.e. P-001, P-002, and P-019, following a 12-point 3-fold serial dilution. Three days after treatment, cell viability was determined using the CellTiter-Glo kit (Promega) following manufacturer's instructions. Cell viability was normalized to the mean values of 3 replicates of untreated cells. Dose-dependent response was analyzed following the least-squares non-linear regression method using the GraphPad Prism 5.0 software.
LNCaP (clone FGC), 22RV1 and other cells were cultured at 37° C. with 5% CO 2 in RPMI 1640 Medium supplemented with 10% fetal bovine serum. Cells were authenticated using the short tandem repeat (STR) assays. Mycoplasma test results were negative.
Cells were seeded at a density of 5000 cells per well in 96-well assay plates and treated with test compounds following a 12-point 3-fold serial dilution. Three days later, cell viability was determined using the CellTiter-Glo assay kit according to the manufactureR's instructions. The dose-response curves were determined and IC50 values were calculated using the GraphPad Prism software following a nonlinear regression (least squares fit) method.

The target in experiment [2] is P300 (Homo sapiens, UniProt Q09472). Nature of the experiment: percentage of inhibition (degradation) of p300 at 10 nM, Tables 2-4. Particulars: for Degradation (10 nM): Table 3; for inhibition at 0.01 µM: read-out: Degradation (10 nM). Format: cell-based. Also noted: LNCaP or 22RV1 cells that express CBP/P300 proteins were treated with GNE-781 or the bivalent compounds; endogenous in cells; host or cells: LNCaP or 22RV1 (not given). The method, then:
Cultured cells or tissue chunks were washed with cold PBS once and lysed in cold RIPA buffer supplemented with protease inhibitors and phosphatase inhibitors (Beyotime Biotechnology). The solutions were then incubated at 4° C. for 30 minutes with gentle agitation to fully lyse cells. Cell lysates were centrifuged at 13,000 rpm for 10 minutes at 4° C. and pellets were discarded. Total protein concentrations in the lysates were determined by BCA assays (Beyotime Biotechnology). Cell lysates were mixed with Laemmli loading buffer to 1 X and heated at 99° C. for 5 min. Proteins were resolved on SDS-PAGE and visualized by chemiluminescence. Images were taken by a ChemiDoc MP Imaging system (Bio-Rad). Protein bands were quantitated using the accompanied software provided by Bio-Rad.

Chain of P300 (Q09472 whole entry): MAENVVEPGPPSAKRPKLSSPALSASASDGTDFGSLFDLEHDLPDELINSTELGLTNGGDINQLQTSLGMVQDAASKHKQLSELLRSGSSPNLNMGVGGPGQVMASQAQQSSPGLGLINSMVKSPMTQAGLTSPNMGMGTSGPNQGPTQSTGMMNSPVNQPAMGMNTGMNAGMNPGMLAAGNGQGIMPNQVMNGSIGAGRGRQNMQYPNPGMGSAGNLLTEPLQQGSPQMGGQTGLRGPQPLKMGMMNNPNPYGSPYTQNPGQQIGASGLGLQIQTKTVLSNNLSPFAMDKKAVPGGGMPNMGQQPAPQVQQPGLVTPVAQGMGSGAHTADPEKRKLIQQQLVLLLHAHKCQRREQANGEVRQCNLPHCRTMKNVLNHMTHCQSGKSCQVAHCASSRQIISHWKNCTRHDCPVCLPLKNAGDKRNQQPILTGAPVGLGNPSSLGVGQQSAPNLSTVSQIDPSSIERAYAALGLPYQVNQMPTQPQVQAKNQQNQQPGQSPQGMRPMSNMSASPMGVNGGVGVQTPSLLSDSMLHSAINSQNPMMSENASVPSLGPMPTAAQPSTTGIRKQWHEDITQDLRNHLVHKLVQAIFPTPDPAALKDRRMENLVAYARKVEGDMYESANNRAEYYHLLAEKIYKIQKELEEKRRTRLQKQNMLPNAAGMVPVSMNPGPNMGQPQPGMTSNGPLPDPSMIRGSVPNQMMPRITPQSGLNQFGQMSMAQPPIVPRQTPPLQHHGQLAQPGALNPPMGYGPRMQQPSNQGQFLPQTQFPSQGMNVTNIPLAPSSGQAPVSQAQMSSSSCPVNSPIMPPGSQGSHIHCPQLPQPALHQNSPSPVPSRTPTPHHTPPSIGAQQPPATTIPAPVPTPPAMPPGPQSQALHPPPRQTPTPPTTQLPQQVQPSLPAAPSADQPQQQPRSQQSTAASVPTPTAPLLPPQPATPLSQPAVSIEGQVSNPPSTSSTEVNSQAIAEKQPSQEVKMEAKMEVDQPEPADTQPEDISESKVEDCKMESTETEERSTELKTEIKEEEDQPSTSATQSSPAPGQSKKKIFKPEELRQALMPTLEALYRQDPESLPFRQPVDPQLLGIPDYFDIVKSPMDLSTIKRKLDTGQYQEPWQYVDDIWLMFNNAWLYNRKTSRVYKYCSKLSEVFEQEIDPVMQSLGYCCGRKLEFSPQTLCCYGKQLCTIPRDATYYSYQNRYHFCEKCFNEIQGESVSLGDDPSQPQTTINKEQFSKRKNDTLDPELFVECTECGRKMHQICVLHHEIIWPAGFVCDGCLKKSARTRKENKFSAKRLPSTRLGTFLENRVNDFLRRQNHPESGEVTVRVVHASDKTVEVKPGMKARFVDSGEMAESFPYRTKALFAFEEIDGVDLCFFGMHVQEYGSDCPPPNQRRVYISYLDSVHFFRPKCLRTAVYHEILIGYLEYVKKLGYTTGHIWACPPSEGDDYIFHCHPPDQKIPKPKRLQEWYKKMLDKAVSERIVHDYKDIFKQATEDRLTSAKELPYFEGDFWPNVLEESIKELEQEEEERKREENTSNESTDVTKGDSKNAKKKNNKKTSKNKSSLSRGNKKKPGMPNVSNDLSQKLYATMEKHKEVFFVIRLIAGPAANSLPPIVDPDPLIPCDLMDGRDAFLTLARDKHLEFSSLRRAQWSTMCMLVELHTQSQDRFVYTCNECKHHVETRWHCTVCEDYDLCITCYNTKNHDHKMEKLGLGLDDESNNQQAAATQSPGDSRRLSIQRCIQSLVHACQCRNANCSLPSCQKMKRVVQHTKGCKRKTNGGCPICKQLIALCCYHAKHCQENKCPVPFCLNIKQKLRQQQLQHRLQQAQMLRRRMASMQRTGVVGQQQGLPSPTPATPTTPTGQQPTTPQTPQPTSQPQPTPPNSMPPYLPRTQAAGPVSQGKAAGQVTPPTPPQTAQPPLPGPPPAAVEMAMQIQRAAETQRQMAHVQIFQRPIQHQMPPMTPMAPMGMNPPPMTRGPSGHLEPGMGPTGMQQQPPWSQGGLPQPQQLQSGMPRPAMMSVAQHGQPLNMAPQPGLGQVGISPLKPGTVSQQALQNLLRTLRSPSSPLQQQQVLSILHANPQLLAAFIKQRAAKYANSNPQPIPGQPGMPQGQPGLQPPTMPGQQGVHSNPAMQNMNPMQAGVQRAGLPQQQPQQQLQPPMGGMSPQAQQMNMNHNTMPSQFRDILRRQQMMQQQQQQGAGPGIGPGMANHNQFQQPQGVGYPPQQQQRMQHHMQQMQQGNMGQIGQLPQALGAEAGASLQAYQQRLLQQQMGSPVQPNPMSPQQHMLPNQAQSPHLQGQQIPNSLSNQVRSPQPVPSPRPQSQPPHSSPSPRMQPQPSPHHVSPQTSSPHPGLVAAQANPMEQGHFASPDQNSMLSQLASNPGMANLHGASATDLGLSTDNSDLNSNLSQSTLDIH

A word on the IC50: it is the concentration that gives 50% inhibition. Higher therefore signals lower potency. The compound `CC(=O)N1CCc2c(c(N3CCCc4cc(-c5cnn(C)c5)c(C(F)F)cc43)nn2C2CCN(C(=O)CCCCCCCn3c(=O)n(C4CCC(=O)NC4=O)c4ccccc43)CC2)C1` (stereo not shown) [P-135, 3-(3-(8-(4-(5-acetyl-3-(7-(difluoromethyl)-6-(1-methyl-1H-pyrazol-4-yl)-3,4-dihydroquinolin-1(2H)-yl)-4,5,6,7-tetrahydro-1H-pyrazolo[4,3-c]pyridin-1-yl)piperidin-1-yl)-8-oxooctyl)-2-oxo-2,3-dihydro-1H-benzo[d]imidazol-1-yl)piperidine-2,6-dione] gave an IC50 in experiment [1] (Table 3) of 0.7 nM. The “Degradation (10 nM)” value in experiment [2] (p300, 10 nM) is “A (A: Degradation ≥ 80%)”.
With `CC(=O)N1CCc2c(c(N3CCCc4cc(-c5cnn(C)c5)c(C(F)F)cc43)nn2C2CCN(Cc3ccc(CNc4cccc5c4CN(C4CCC(=O)NC4=O)C5=O)nc3)CC2)C1` (stereo not shown) [P-196, 3-(4-(((5-((4-(5-acetyl-3-(7-(difluoromethyl)-6-(1-methyl-1H-pyrazol-4-yl)-3,4-dihydroquinolin-1(2H)-yl)-4,5,6,7-tetrahydro-1H-pyrazolo[4,3-c]pyridin-1-yl)piperidin-1-yl)methyl)pyridin-2-yl)methyl)amino)-1-oxoisoindolin-2-yl)piperidine-2,6-dione], the IC50 in experiment [1] (Table 4) turned out to be 2.4 nM. The inhibition at 0.01 µM in experiment [2] (p300, 10 nM, Table 4) was over 80%.
The matching figures for `CC(=O)N1CCc2c(c(N3CCCc4cc(-c5cnn(C)c5)c(C(F)F)cc43)nn2C2CCN(Cc3ccc(CNc4cccc5c4CN(C4CCC(=O)NC4=O)C5=O)cc3)CC2)C1` (stereo not shown) [P-200]: 7.9 nM and 50 to 80%.
As for `CC(=O)N1CCc2c(c(N3CCCc4cc(-c5cnn(C)c5)c(C(F)F)cc43)nn2C2CCN(CCCN3CCN(c4cccc5c4C(=O)N(C4CCC(=O)NC4=O)C5=O)CC3)CC2)C1` (stereo not shown) [P-247, 4-(4-(3-(4-(5-Acetyl-3-(7-(difluoromethyl)-6-(1-methyl-1H-pyrazol-4-yl)-3,4-dihydroquinolin-1(2H)-yl)-4,5,6,7-tetrahydro-1H-pyrazolo[4,3-c]pyridin-1-yl)piperidin-1-yl)propyl)piperazin-1-yl)-2-(2,6-dioxopiperidin-3-yl)isoindoline-1,3-dione], the IC50 in experiment [1] (Table 4) was over 500 nM. Besides, the inhibition at 0.01 µM in experiment [2] (p300, 10 nM, Table 4) is under 20%.
In turn, `CC(=O)N1CCc2c(c(N3CCCc4cc(-c5cnn(C)c5)c(C(F)F)cc43)nn2C2CCN(C(=O)CN3CCN(CC#Cc4ccc5c(c4)n(C)c(=O)n5C4CCC(=O)NC4=O)CC3)CC2)C1` (stereo not shown) [P-219, 3-(5-(3-(4-(2-(4-(5-Acetyl-3-(7-(difluoromethyl)-6-(1-methyl-1H-pyrazol-4-yl)-3,4-dihydroquinolin-1(2H)-yl)-4,5,6,7-tetrahydro-1H-pyrazolo[4,3-c]pyridin-1-yl)piperidin-1-yl)-2-oxoethyl)piperazin-1-yl)prop-1-yn-1-yl)-3-methyl-2-oxo-2,3-dihydro-1H-benzo[d]imidazol-1-yl)piperidine-2,6-dione] showed a half-maximal inhibitory concentration (IC50) in experiment [1] (Table 4) of 64.7 nM. In addition, the inhibition at 0.01 µM in experiment [2] (p300, 10 nM, Table 4) fell in the range of 20 to 50%.
For `CC(=O)N1CCc2c(c(N3CCCc4cc(-c5cnn(C)c5)c(C(F)F)cc43)nn2C2CCN(CCN3CCC4(CC3)CN(c3cccc5c3C(=O)N(C3CCC(=O)NC3=O)C5=O)C4)CC2)C1` (stereo not shown) [P-245, 4-(7-(2-(4-(5-acetyl-3-(7-(difluoromethyl)-6-(1-methyl-1H-pyrazol-4-yl)-3,4-dihydroquinolin-1(2H)-yl)-4,5,6,7-tetrahydro-1H-pyrazolo[4,3-c]pyridin-1-yl)piperidin-1-yl)ethyl)-2,7-diazaspiro[3.5]nonan-2-yl)-2-(2,6-dioxopiperidin-3-yl)isoindoline-1,3-dione], the half-maximal inhibitory concentration (IC50) in experiment [1] (Table 4) is over 500 nM. In addition, in experiment [2], the inhibition at 0.01 µM lay in the range of 20 to 50%.
In turn, `CC(=O)N1CCc2c(c(N3CCCc4cc(-c5cnn(C)c5)c(C(F)F)cc43)nn2C2CCN(CCN3CCC(CCNc4cccc5c4C(=O)N(C4CCC(=O)NC4=O)C5=O)CC3)CC2)C1` (stereo not shown) [P-188, 4-((2-(1-(2-(4-(5-acetyl-3-(7-(difluoromethyl)-6-(1-methyl-1H-pyrazol-4-yl)-3,4-dihydroquinolin-1(2H)-yl)-4,5,6,7-tetrahydro-1H-pyrazolo[4,3-c]pyridin-1-yl)piperidin-1-yl)ethyl)piperidin-4-yl)ethyl)amino)-2-(2,6-dioxopiperidin-3-yl)isoindoline-1,3-dione] displayed a half-inhibitory concentration (IC50) in experiment [1] (Table 4) of 2.3 nM. The inhibition at 0.01 µM in experiment [2] was over 80%.
Take `CC(=O)N1CCc2c(c(N3CCCc4cc(-c5cnn(C)c5)c(C(F)F)cc43)nn2C2CCN(C(=O)CCN3CCC(C#Cc4cccc5c4n(C)c(=O)n5C4CCC(=O)NC4=O)CC3)CC2)C1` (stereo not shown) [P-231, 3-(4-((1-(3-(4-(5-acetyl-3-(7-(difluoromethyl)-6-(1-methyl-1H-pyrazol-4-yl)-3,4-dihydroquinolin-1(2H)-yl)-4,5,6,7-tetrahydro-1H-pyrazolo[4,3-c]pyridin-1-yl)piperidin-1-yl)-3-oxopropyl)piperidin-4-yl)ethynyl)-3-methyl-2-oxo-2,3-dihydro-1H-benzo[d]imidazol-1-yl)piperidine-2,6-dione]: inhibition in experiment [1] (Table 4) was half-maximal at 1.3 nM (IC50). Moreover, the inhibition at 0.01 µM in experiment [2] (p300, 10 nM, Table 4) was over 80%.
Consider `CC(=O)N1CCc2c(c(N3CCCc4cc(-c5cnn(C)c5)c(C(F)F)cc43)nn2C2CCN(C(=O)CCN3CCC(CNc4cccc5c4n(C)c(=O)n5C4CCC(=O)NC4=O)CC3)CC2)C1` (stereo not shown) [P-213, 3-(4-(((1-(3-(4-(5-Acetyl-3-(7-(difluoromethyl)-6-(1-methyl-1H-pyrazol-4-yl)-3,4-dihydroquinolin-1(2H)-yl)-4,5,6,7-tetrahydro-1H-pyrazolo[4,3-c]pyridin-1-yl)piperidin-1-yl)-3-oxopropyl)piperidin-4-yl)methyl)amino)-3-methyl-2-oxo-2,3-dihydro-1H-benzo[d]imidazol-1-yl)piperidine-2,6-dione], for which it took 96.8 nM to reach half-maximal inhibition in experiment [1] (Table 4) (IC50). Further, in experiment [2] (p300, 10 nM, Table 4), the inhibition at 0.01 µM was under 20%.
Consider `CC(=O)N1CCc2c(c(N3CCCc4cc(-c5cnn(C)c5)c(C(F)F)cc43)nn2C2CCN(C(=O)CCN3CCN(CC#Cc4cccc5c4n(C)c(=O)n5C4CCC(=O)NC4=O)CC3)CC2)C1` (stereo not shown) [P-238, 3-(4-(3-(4-(3-(4-(5-Acetyl-3-(7-(difluoromethyl)-6-(1-methyl-1H-pyrazol-4-yl)-3,4-dihydroquinolin-1(2H)-yl)-4,5,6,7-tetrahydro-1H-pyrazolo[4,3-c]pyridin-1-yl)piperidin-1-yl)-3-oxopropyl)piperazin-1-yl)prop-1-yn-1-yl)-3-methyl-2-oxo-2,3-dihydro-1H-benzo[d]imidazol-1-yl)piperidine-2,6-dione], for which the IC50 in experiment [1] (Table 4) turned out to be 81.1 nM. Also, the inhibition at 0.01 µM in experiment [2] (p300, 10 nM, Table 4) was 20 to 50%.
As for `CC(=O)N1CCc2c(c(N3CCCc4cc(-c5cnn(C)c5)c(C(F)F)cc43)nn2C2CCN(C(=O)CCCCCCCCn3c(=O)n(C4CCC(=O)NC4=O)c4ccccc43)CC2)C1` (stereo not shown) [P-163, 3-(3-(9-(4-(5-acetyl-3-(7-(difluoromethyl)-6-(1-methyl-1H-pyrazol-4-yl)-3,4-dihydroquinolin-1(2H)-yl)-4,5,6,7-tetrahydro-1H-pyrazolo[4,3-c]pyridin-1-yl)piperidin-1-yl)-9-oxononyl)-2-oxo-2,3-dihydro-1H-benzo[d]imidazol-1-yl)piperidine-2,6-dione], half-maximal inhibition in experiment [1] (Table 3) (IC50) required 0.9 nM. For the same compound, the “Degradation (10 nM)” value in experiment [2] (p300, 10 nM) is listed as “A (A: Degradation ≥ 80%)”.
